Values quoted from earlier work as cited in patent publication US6545056B1, “Aryl nitrone therapeutics and methods for treating inflammatory bowel disease” (Centaur Pharmaceuticals, Inc., priority 1999, dated 2003).

Test system: senescence-accelerated mice

For `CC(C)(C)/[N+]([O-])=C/c1ccccc1` [PBN, α-phenyl-t-butyl nitone], which “increase of the life span” value is on record?
The value was “one third”.
